In patent US10668047B2, “Aziridine containing DNA alkylating agents” (priority 2015, dated 2020):
Like-named read-outs stand apart in the source and are kept apart here.

Experiments:
[1] = MTD determination, administered daily for 5 days (preliminary studies for the H460 xenograft model); assay type: in vivo, nude mice (nu/nu); details: on the basis of weight loss and behavioral signs, female nude mice
Procedure: On the basis of the favorable in vitro data for these compounds, their anti-tumor activities in the H460 (NSCLC) human tumor xenograft model were evaluated. H460 cells (lx 10^6) were subcutaneously implanted in the flanks of pathogen-free homozygous female nude mice (nu/nu, Charles River Laboratories). When tumor size reached 100-150 mm^3, animals were randomized to 10 mice per treatment group. All tested compounds were formulated in 5% DMSO, 5% Tween 80 in D5W. The doses of all the compounds were chosen on the basis of preliminary studies to define the MTD of each compound when administered daily for 5 days. On the basis of weight loss and behavioral signs, the MTDs of TH2565 and TH2566 were determined to be 2 mg/kg, respectively. The comparative tumor volume reductions for certain compounds are graphically illustrated in FIGS. 1A-1C.

[2] = tested on: H460 non-cell lung cancer human tumor cell line; experiment: In vitro human tumor cell line cytotoxicity (proliferation) assay, AlamarBlue; assay type: cell-based
Outline: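 H460 cells (4×10^3/well) attached for 24 h, then were exposed to compound for 2 hours at 37° C. before washout and 70 hrs further growth in fresh medium. Viable cells were measured by AlamarBlue, and IC50 (50% growth inhibition) was determined relative to media-only control.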

[3] = Homo sapiens, NCI-H460, H460 cells, under air, 2 hrs exposure, wash, then 70 hrs growth, read-out: IC50 (air)
[4] = Homo sapiens, NCI-H460, H460 cells, under nitrogen, 2 hrs exposure, wash, then 70 hrs growth, read-out: IC50 (N2)

| Structure (SMILES) | IC50 [2, 3] [nM] | IC50 [2, 4] [nM] | further results |
| --- | --- | --- | --- |
| CC(OP(=O)(N1CC1)N1CC1)c1ccc([N+](=O)[O-])cc1 (single isomer, unassigned) [compound 2566] |  |  | MTD [1]: 2 mg/kg; IC50 ([2]; read-out: IC50 (N2), H460 cells, under nitrogen, 2 hrs exposure, wash, then 70 hrs growth): 100 nM; IC50 ([2]; read-out: IC50 (air), H460 cells, under air, 2 hrs exposure, wash, then 70 hrs growth): 23000 nM |
| CC(OP(=O)(N1CC1)N1CC1)c1ccc([N+](=O)[O-])cc1 (single isomer, unassigned) [compound 2565] |  |  | MTD at 5 days ([1]; nude (nu/nu), mouse, in vivo): 2 mg/kg; IC50 ([2]; Homo sapiens, NCI-H460, read-out: IC50 (N2), H460 cells, under nitrogen, 2 hrs exposure, wash, then 70 hrs growth): 100 nM; IC50 ([2]; Homo sapiens, NCI-H460, read-out: IC50 (air), H460 cells, under air, 2 hrs exposure, wash, then 70 hrs growth): 18000 nM |
| O=[N+]([O-])c1cc(Cl)c(COP(=O)(N2CC2)N2CC2)c(Cl)c1 [compound 2602] | 250 | 20 |  |
| Cn1c([N+](=O)[O-])cnc1C(OP(=O)(N1CC1)N1CC1)C(c1ccccc1)c1ccccc1 (centres unmarked) [compound 2640] | 83000 | 1100 |  |
| O=[N+]([O-])c1ccc(COP(=O)(N2CC2)N2CC2)cc1Cl [compound 2579] | 2600 | 1300 |  |
| O=[N+]([O-])c1ccccc1COP(=O)(N1CC1)N1CC1 [compound 2578] | 28000 | 6000 |  |
